For test [1], the system named is diastolic congestive heart failure patients. Briefly: Echocardiographic evaluation of diastolic function in diastolic congestive heart failure patients, EPA-E-administered vs non-administered group (Example 2). In kind it is in vivo, human. The protocol: Diastolic congestive heart failure patients were targeted and divided into an EPA-E-administered group and an EPA-E-non-administered group. The EPA-E-administered group received the oral administration of EPA-E (trade name: Epadel; manufactured by Mochida Pharmaceutical Co., Ltd.) at a daily dose of 1800 mg for 6 months. The EPA-E-non-administered group received neither EPA nor its derivative during the test period. Another hypotensive or antilipidemic agent was not administered to any of these groups during the test period. The diastolic function of each patient was evaluated by echocardiography before the start of the test and after the completion of the test (6 months later). The evaluation items used were 1) a ratio of a peak filling velocity of early diastolic transmitral flow (a peak filling velocity of mitral inflow during early diastole: E) to a peak filling velocity of atrial systolic transmitral flow (a peak filling velocity of mitral inflow during atrial contraction: A) (E/A ratio), 2) the time required for the peak filling velocity of mitral inflow during early diastole to reach zero (deceleration time: DT), 3) an early diastolic mitral annulus velocity (E), and 4) an E/E′ ratio. The degree of improvement in these indexes was confirmed for each case corresponding to 1) an E/A ratio<1.0, 2) DT>250 msec, 3) E′<8 cm/s, or 4) an E/E′ ratio>15 as an index for cardiac diastolic dysfunction. The rate of change was determined as an average of % change from the value (defined as 100) before the start to the value after 6 months in each case.

For test [2] the test system is unchanged. The description is as above. The class given is in vivo, human. To be noted: target cases E′ <8 cm/s (18 cases).
Setting [3] is: printed as reduction (improvement), average of % change per case, before start to 6 months, 1800 mg/day oral.
[4] abbreviates: printed as rise (improvement), average of % change per case, before start to 6 months, 1800 mg/day oral.

For the compound `CC/C=C\C/C=C\C/C=C\C/C=C\C/C=C\CCCC(=O)OCC` [EPA-E, icosapentaenoic acid ethyl ester], in test [1] (setting [3]), the “DT, rate of change” value is 10.9% reduction and the “E/E′ ratio, rate of change” value is recorded as 27.4% reduction. In test [1] (setting [4]), the “E/A ratio, rate of change” value turned out to be 3.7% rise and the “E′, rate of change” value is reported as 2.3% rise. The “DT (deceleration time), mean after 6 months” value in test [1] (target cases DT >250 msec (6 cases), EPA-E 1800 mg/day oral, 6 months) amounted to 241.7 ms. For the same compound, the “DT (deceleration time), mean before start” value in test [1] (target cases DT >250 msec (6 cases), baseline before EPA-E 1800 mg/day oral) amounted to 271.3 ms. The “E/A ratio, mean after 6 months” value in test [1] (target cases E/A ratio <1.0 (14 cases), EPA-E 1800 mg/day oral, 6 months) came to 0.692. Further, in test [1] (target cases E/A ratio <1.0 (14 cases), baseline before EPA-E 1800 mg/day oral), the “E/A ratio, mean before start” value amounted to 0.669. The “E/E′ ratio, mean after 6 months” value in test [1] (target cases E/E′ ratio >15 (4 cases), EPA-E 1800 mg/day oral, 6 months) is 13.14. For the same compound, the “E/E′ ratio, mean before start” value in test [1] (target cases E/E′ ratio >15 (4 cases), baseline before EPA-E 1800 mg/day oral) came out at 18.09. Besides, in test [2] (EPA-E 1800 mg/day oral, 6 months), the “E′ (early diastolic mitral annular velocity), mean after 6 months” value is recorded as 4.539 cm/s. Besides, in test [2] (baseline before EPA-E 1800 mg/day oral), the “E′ (early diastolic mitral annular velocity), mean before start” value was determined as 4.483 cm/s.
